Assay results: US20250186404A1, “METHODS OF USING A (THIAZOLYL)BENZENESULFONAMIDE DERIVATIVE” (Cyteir Therapeutics, Inc., priority 2023, published 2025)
Read-outs that look alike come from different tables or passages of the source.

Legend:
human MCT1 = target: T1, human MCT1 (Homo sapiens, UniProt P53985); experiment: MCT1 Transport Inhibition Assay (TPGA uptake, LC-MS/MS); format: cell-based
T1 construct: host or cells: MDCK-II (canine) cells, transient co-transfection
T1 sequence (P53985 1-500): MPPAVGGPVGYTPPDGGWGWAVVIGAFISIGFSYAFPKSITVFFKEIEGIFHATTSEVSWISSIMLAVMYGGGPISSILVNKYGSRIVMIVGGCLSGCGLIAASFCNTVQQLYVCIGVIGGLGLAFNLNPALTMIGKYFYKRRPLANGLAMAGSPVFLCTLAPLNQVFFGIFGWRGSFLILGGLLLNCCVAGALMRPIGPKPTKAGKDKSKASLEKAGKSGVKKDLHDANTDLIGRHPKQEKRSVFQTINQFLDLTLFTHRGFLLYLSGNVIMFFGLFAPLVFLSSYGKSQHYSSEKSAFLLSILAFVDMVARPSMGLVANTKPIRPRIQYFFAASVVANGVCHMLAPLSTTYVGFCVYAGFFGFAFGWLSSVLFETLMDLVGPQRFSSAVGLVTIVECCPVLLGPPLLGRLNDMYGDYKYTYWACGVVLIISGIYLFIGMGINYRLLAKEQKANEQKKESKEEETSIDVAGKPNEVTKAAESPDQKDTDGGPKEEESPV
T1 sequence (P35613 140-385 partner limits assumed): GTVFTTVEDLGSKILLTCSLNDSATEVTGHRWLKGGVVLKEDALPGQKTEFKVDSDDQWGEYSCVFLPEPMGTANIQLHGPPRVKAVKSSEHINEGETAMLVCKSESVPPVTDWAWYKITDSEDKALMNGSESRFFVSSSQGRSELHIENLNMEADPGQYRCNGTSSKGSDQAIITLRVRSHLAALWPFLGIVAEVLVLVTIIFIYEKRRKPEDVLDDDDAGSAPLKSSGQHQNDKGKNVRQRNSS
Experimental: Inhibition of MCT1 transport after treatment with compounds of the present invention was measured in MDCK-II cells that overexpress human MCT1 by quantifying the transport of 2-Thiophene-glycoxylic acid (TPGA) into cells using LC-MS/MS.
MDCK-II cells are seeded at 60,000 cells per well in growth medium (low-glucose DMEM+10% FBS) in 96-well trans-well membrane plates, and incubated overnight (37° C., 5% CO2). Cells were co-transfected with mammalian expression constructs coding for MCT1 and CD147 at a 2:1 ratio or an empty vector control (GFP) and then incubated for 48 h (37° C., 5% CO2). Cells were washed 3 times with HBSS and cells were preincubated with inhibitors or vehicle control at room temperature in HBSS for 30 min with orbital shaking (60 rpm). HBSS was aspirated from the wells and replaced with HBSS with 25 mM Bis-Tris pH5.5+inhibitor or vehicle control+500 μM TPGA and incubated for 1 min at room temperature with orbital shaking (60 rpm). Both the apical and basolateral side of the trans-well insert were washed 4 times with ice-cold PBS. Cells were lysed with 60 μL of cell extraction solution, and the amount of TPGA in each well was quantified in triplicate by LC-MS/MS. The MCT1-mediated uptake rate was calculated using the following equation: […]
Percent inhibition for each concentration of inhibitor tested was calculated using the following equation: […]
Curves were fit to the calculated percent inhibition for each inhibitor, and the IC50 representing the concentration of inhibitor at which MCT1 is inhibited by 50% was calculated from this curve.
Canine MDCKII cells expressing human MCT1 were treated with a titration of Compound 67A, and import of the MCT1 substrate, 2-TPGA was measured by LC-MS (FIG. 1).

Human MCT2 = target: T2, Human MCT2 (Homo sapiens, UniProt O60669); experiment: Inhibition of 3BP import (rescue of viability) in MCT2-overexpressing INS-1 cells; format: cell-based; conditions: INS-1 cells over-expressing human MCT2, rescue from LC100 3BP
T2 construct: expressed in transfected cells
T2 sequence (O60669 1-478): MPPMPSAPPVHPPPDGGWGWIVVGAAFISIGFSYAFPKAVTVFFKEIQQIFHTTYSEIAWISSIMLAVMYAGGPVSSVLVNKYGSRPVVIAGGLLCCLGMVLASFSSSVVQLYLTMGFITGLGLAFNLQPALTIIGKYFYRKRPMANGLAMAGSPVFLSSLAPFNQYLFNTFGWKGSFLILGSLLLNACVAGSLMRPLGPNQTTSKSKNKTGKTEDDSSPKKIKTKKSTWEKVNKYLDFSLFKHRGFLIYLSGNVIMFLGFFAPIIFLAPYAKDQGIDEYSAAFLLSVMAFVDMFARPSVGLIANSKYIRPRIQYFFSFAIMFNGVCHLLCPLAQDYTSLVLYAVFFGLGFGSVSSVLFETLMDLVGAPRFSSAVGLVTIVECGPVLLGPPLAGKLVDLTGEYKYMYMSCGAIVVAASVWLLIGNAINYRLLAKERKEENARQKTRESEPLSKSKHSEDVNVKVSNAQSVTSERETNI
Experimental: Human MCT1-4 were stably expressed in INS-1 rat pancreatic islet B-cells, which are deficient in endogenous MCT expression. 3-Bromopyruvate (3BP), a highly reactive and cytotoxic monocarboxylate, can enter the INS-1 cells via the overexpressed MCT isoform, resulting in rapid cell death. However, prevention of 3BP transport into the cell by an MCT inhibitor can prevent 3BP-mediated cell death (FIG. 16).
INS-1 cells over-expressing an MCT paralog were treated with a titration of 3BP to determine the lowest concentration that results in 100% cell killing (LC100). The INS-1 cells were then pre-treated with a titration of Compound 67A before exposure to the LC100 concentration of 3BP specific for that MCT-over-expressing cell line, and rescue of cell viability was measured (FIG. 17).

[1] = MDCK-II cells overexpressing human MCT1, TPGA transport, read-out: BioIVT MCT1 Transporter IC50

IC50 (human MCT1; Canine MDCKII cells expressing human MCT1, LC-MS, read-out: inhibits 2-TPGA import, IC50) [nM] | Compound | IC50 (human MCT1; [1]) [nM] | IC50 (Human MCT2) [nM]
– | O=C(Nc1ccccc1C(=O)O)c1cc(S(=O)(=O)c2ccccc2)ccc1Cl [BAY8002] | 50 to 150 | 1000 to 10000
134 | CC(C)OC(=O)Nc1ccc(-c2cnc([C@H]3CC[C@H](NC(=O)OC(C)C)CC3)s2)c(S(=O)(=O)NC(C)(C)C)c1 [Compound 67A] | 50 to 150 | > 33000
– | AZD3965 | 150 to 1000 | 1000 to 10000
